Counter-ions that a name gives are not always drawn.
Legend:
[1] = molecular target: T1, ROS tyrosine kinase (Homo sapiens, UniProt P08922); test: ROS tyrosine kinase inhibitory activity test (ELISA); type: biochemical, humans; conditions: 25 μM ATP substrate solution, 30° C., one hour
T1 construct: purchased Carna Biosciences, Inc
Method: (§1) 1. Preparation of Test Substance:
(§2) A test substance was dissolved in dimethyl sulfoxide (DMSO) to 10 mM and further diluted with DMSO to concentrations of 100-fold of the concentrations to be measured (100, 10, 1, 0.1, and 0.01 μM). Furthermore, the resultant was diluted with an assay buffer to 20-fold, thereby preparing a solution as a test substance solution. A solution prepared by diluting DMSO with an assay buffer to 20-fold was used as a negative control. A buffer containing 15 mM Tris-Cl (pH 7.5), 0.01 (v/v) % Tween-20, and 1 mM dithiothreitol was used as the assay buffer.
(§3) 2. Measurement of ROS Tyrosine Kinase Activity and JAK2 Tyrosine Kinase Activity:
(§4) The activity was measured by adopting the ELISA method. […] Finally, an ROS kinase or a JAK2 kinase (derived from humans, Carna Biosciences, Inc.) (diluted with the assay buffer to 0.25 nM) was added to the plate at 20 μL per well, and the resulting mixture was stirred. A reaction was performed at 30° C. for one hour. After the plate was washed 4 times with a washing buffer (50 mM Tris-Cl (pH 7.5), 150 mM NaCl, and 0.02 (v/v) % Tween-20), a blocking buffer (0.1% bovine serum albumin, 50 mM Tris-Cl (pH 7.5), 150 mM NaCl, and 0.02 (v/v) % Tween-20) was added to the plate at 150 μL per well, and incubated at 30° C. for 30 minutes. The blocking buffer was then removed, and a horse radish peroxidase-labeled anti-phosphorylated tyrosine antibody (BD Biosciences, Inc.) (diluted with the blocking buffer to 10,000-fold) was added to the plate at 100 μL per well, and the plate was incubated at 30° C. for 30 minutes. After the plate was washed 4 times with the washing buffer, a 3,3′,5,5′-tetramethylbenzidine solution (Sigma-Aldrich Co., Ltd.) was added to the plate at 100 μL per well to develop the color for 10 minutes. The reaction was stopped by adding 0.1 M sulfuric acid at 100 μL per well. An absorbance at 450 nm was measured with a microplate reader (Model 3550, manufactured by BIO-RAD, Benchmark, manufactured by BIO-RAD, or iMARK, manufactured by BIO-RAD).
(§5) 3. Analysis of Measurement Results:
(§6) A non-linear regression analysis was performed for the measured absorbance with an SAS system (SAS Institute Inc.), and a concentration of each of the test substances of inhibiting the ROS tyrosine kinase activity or JAK2 tyrosine kinase activity at 50% (IC50) was calculated. The inhibitory activity (IC50, nM) of each of the test substances against the ROS tyrosine kinase or JAK2 tyrosine kinase is shown in Tables 6 to 8.

[2] = molecular target: T2, JAK2 tyrosine kinase (Homo sapiens, UniProt O60674); test: JAK2 tyrosine kinase inhibitory activity test (ELISA); type: biochemical, humans; conditions: 25 μM ATP substrate solution, 30° C., one hour
T2 construct: purchased Carna Biosciences, Inc
Method: as §1, §2, §3, §4, §5, §6

[3] = molecular target: T3, FIG-ROS/BaF3 cell (Homo sapiens, UniProt P08922); test: Proliferation inhibitory activity test against FIG-ROS/BaF3 cell; type: cell-based; conditions: 3 days incubation, cell counting kit; read-out: Proliferation inhibitory activity against FIG-ROS/BaF3 cell (IC50)
T3 construct: fused on or other part: Q9HD26 (Golgi-associated PDZ and coiled-coil motif-containing protein)
Method: A BaF3 cell which had been transformed by introducing the FIG-ROS fusion gene (derived from U118MG human glioma cell) (FIG-ROS/BaF3 Cell) was prepared on a culture medium, seeded on a 96-well plate in the number of 1×10^3/100 μL per well, and then allowed to stand in a CO2 incubator (at 37° C. and 5% CO2). As the culture medium, 10% FBS (fetal bovine serum)-incorporated RPMI-1640 was used.
2. Proliferation Inhibitory Activity Test:
A test substance was dissolved in dimethyl sulfoxide (DMSO) to 10 mM and further diluted with DMSO to 100-fold to prepare a 100 μM solution. This was diluted with a 1% DMSO-incorporated medium to concentrations of 10-fold of the concentration to be measured (10,000, 1,000, 100, 10, and 1 nM). Each of the medicine solutions was added at 11 μL per well and mixed. To a control having no medicine added thereto, a 1% DMSO-incorporated medium was added, and incubated in a CO2 incubator (at 37° C. and 5% CO2) for 3 days. After completion of the incubation, the number of live cells was counted using a cell counting kit. First of all, each cell counting kit solution was added at 5 μL per well and mixed, and incubated in a CO2 incubator (at 37° C. and 5% CO2) for 4 hours. An absorbance at 450 nm was measured with a microplate reader (Model 3550, manufactured by BIO-RAD, Benchmark, manufactured by BIO-RAD, or iMARK, manufactured by BIO-RAD) with a reference wavelength of 650 nm.
as §5
A non-linear regression analysis was performed for the measured absorbance with an SAS system (SAS Institute Inc.), and a concentration of each of the test substances of inhibiting the cell proliferation at 50% (IC50) was calculated. The proliferation inhibitory activity (IC50, nM) of each of the test substances against the FIG-ROS/BaF3 cell is shown in Table 9.

T3 sequence (P08922 whole entry, stated change not applied, the tested form may be a part): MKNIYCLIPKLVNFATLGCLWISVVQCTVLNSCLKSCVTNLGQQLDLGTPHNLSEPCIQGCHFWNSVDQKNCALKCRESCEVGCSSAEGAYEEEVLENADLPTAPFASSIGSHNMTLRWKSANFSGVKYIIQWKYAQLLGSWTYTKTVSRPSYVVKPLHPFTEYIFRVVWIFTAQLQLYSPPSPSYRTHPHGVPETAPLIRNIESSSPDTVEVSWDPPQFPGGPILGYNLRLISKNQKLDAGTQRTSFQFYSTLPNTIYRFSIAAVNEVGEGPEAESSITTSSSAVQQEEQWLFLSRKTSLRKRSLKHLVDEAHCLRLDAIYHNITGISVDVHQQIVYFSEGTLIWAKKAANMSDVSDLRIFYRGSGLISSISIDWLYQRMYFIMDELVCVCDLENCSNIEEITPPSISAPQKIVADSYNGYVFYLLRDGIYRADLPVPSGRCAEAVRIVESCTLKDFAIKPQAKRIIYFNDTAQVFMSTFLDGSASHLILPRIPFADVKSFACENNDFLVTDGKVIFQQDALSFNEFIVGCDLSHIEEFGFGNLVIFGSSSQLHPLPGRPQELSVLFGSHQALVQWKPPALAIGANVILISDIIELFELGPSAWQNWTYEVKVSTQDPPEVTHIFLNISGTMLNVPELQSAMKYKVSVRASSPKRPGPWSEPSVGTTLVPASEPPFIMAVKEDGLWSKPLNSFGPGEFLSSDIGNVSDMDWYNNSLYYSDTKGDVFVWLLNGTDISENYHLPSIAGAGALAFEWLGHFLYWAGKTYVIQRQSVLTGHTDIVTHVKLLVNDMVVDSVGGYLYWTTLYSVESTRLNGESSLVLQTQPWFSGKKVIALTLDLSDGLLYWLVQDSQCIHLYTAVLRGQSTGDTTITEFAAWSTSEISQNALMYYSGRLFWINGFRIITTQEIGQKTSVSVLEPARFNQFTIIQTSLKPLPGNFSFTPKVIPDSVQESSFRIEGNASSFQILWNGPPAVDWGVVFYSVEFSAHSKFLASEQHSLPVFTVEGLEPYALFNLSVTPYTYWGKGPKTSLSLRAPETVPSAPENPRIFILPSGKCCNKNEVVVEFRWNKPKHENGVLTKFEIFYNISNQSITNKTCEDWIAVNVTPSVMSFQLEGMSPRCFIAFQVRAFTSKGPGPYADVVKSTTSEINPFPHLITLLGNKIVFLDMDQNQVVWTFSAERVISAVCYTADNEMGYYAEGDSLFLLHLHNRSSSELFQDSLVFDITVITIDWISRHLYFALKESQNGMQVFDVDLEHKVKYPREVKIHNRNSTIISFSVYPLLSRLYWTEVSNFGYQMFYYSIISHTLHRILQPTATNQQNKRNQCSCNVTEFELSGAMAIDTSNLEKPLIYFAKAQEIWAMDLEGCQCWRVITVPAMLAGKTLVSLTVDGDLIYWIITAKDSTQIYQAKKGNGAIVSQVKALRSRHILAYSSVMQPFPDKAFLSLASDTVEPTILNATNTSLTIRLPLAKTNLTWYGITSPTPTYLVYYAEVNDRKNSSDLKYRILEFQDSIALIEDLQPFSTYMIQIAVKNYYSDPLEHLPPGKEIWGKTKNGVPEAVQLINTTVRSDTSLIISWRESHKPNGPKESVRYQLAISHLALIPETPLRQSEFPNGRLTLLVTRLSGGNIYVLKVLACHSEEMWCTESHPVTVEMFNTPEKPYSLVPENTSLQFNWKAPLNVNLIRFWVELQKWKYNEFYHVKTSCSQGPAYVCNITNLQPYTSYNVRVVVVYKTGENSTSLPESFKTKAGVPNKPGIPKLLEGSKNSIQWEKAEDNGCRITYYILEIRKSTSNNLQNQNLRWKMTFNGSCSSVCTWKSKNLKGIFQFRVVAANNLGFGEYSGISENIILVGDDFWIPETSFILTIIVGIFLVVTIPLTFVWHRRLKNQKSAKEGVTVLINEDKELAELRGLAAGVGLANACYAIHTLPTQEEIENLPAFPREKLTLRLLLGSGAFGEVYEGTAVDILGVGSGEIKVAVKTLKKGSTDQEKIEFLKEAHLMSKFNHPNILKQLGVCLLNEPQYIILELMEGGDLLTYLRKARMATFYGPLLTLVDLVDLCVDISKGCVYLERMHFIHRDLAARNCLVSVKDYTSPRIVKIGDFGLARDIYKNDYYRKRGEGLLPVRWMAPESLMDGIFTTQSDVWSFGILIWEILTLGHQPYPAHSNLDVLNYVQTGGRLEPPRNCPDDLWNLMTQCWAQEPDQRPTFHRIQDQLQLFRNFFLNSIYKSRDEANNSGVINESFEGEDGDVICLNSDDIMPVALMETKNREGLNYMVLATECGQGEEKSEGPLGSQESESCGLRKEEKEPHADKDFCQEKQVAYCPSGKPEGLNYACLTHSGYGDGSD
T1 sequence (P08922 28-2347): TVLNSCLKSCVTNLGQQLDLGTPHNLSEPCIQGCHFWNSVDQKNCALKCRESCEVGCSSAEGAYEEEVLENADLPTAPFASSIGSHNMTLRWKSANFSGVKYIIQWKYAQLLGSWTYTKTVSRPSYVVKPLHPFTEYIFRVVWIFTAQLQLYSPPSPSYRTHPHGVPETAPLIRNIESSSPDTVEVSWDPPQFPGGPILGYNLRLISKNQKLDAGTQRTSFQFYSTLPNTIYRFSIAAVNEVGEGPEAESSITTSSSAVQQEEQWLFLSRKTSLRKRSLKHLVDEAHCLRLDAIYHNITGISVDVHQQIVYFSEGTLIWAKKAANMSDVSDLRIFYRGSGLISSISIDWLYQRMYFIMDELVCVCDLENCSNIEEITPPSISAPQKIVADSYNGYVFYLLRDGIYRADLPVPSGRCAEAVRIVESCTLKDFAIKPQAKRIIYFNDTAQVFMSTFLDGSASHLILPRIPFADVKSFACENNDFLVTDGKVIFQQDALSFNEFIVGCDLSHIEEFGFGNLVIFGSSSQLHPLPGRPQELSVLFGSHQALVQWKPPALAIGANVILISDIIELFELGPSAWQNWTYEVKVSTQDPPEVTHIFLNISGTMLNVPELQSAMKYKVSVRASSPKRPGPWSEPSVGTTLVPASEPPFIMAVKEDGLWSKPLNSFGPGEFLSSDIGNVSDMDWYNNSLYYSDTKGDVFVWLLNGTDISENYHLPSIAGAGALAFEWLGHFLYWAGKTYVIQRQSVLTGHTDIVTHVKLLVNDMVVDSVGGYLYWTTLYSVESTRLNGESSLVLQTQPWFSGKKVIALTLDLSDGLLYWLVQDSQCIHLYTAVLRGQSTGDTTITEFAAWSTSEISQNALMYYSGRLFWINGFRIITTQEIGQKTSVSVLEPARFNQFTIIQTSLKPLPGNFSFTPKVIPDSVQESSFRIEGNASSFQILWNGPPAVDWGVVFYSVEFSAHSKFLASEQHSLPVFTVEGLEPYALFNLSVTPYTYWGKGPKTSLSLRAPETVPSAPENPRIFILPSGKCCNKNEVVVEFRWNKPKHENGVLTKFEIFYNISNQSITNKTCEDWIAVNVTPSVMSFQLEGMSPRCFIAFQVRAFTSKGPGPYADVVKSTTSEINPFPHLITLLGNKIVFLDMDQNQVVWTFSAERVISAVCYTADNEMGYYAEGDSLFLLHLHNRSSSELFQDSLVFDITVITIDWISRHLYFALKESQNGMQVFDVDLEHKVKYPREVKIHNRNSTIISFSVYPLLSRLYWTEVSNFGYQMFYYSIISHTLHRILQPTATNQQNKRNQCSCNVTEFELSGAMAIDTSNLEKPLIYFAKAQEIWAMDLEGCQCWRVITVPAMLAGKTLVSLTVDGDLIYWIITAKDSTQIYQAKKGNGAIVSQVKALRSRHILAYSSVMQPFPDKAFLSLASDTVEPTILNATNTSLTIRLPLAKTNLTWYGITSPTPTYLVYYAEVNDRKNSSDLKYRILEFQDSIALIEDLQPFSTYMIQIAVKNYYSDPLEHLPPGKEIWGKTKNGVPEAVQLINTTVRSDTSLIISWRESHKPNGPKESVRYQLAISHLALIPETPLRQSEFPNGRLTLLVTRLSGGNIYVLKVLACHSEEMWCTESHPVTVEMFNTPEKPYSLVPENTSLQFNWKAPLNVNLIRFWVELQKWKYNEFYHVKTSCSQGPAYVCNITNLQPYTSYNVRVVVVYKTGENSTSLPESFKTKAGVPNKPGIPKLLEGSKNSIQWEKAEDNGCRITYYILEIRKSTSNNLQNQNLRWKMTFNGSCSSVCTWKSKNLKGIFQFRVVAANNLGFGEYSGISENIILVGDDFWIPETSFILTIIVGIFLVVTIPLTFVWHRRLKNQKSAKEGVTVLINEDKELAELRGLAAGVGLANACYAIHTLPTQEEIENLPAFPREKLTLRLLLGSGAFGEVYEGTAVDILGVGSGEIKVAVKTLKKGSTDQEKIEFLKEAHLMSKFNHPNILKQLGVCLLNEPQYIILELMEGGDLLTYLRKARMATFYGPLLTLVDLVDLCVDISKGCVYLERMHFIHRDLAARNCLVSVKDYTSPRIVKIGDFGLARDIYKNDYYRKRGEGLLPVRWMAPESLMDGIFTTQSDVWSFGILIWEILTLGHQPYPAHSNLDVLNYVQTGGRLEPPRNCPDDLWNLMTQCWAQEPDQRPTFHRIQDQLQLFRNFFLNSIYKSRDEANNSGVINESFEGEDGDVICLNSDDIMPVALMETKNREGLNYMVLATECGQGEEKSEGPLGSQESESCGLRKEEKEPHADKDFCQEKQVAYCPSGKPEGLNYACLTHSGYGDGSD

Row | SMILES | IC50 [1] [nM] | IC50 [2] [nM] | GI50 [3] [nM]
1 | COc1c(Nc2ncc(C#N)s2)nc(N2CCCC2c2ccc(C)cc2)nc1-c1ccc(F)nc1 (stereo not drawn) [Example 50, 2-({6-(6-Fluoropyridin-3-yl)-5-methoxy-2-[2-(4-methylphenyl)pyrrolidin-1-yl]pyrimidin-4-yl}amino)-1,3-thiazole-5-carbonitrile] | 12 | ≥ 1000 | 9.4
2 | COc1cnc(N2CCCC2c2ccc(C)cc2)nc1Nc1ncc(C#N)s1 (stereo not drawn) [Example 19, 2-({5-Methoxy-2-[2-(4-methylphenyl)pyrrolidin-1-yl]pyrimidin-4-yl}amino)-1,3-thiazole-5-carbonitrile] | 2.6 | 220 | 2.9
3 | Cc1ccc([C@@H]2CCCN2c2nc(Nc3ncc(C#N)s3)c(C)c(C(=O)NC3CCN(C)CC3)n2)cc1 [Example 54, 6-[(5-Cyano-1,3-thiazol-2-yl)amino]-5-methyl-2-[(2S)-2-(4-methylphenyl)pyrrolidin-1-yl]-N-(l-methylpiperidin-4-yl)pyrimidine-4-carboxamide] | 3.9 | 190 | 0.4
4 | COc1c(Nc2ncc(C#N)s2)nc(N2CCCC2c2ccc(C)cc2)nc1-c1cnco1 (stereo not drawn) [Example 11, 2-({5-Methoxy-2-[2-(4-methylphenyl)pyrrolidin-1-yl]-6-(1,3-oxazol-5-yl)pyrimidin-4-yl}amino)-1,3-thiazole-5-carbonitrile] | 2.7 | > 1000 | 2.2
5 | N#Cc1cnc(Nc2cncc(N3CCCC3c3ccc(C(F)(F)F)cc3)n2)s1 (stereo not drawn) [Example 39, 2-[(6-{2-[4-(Trifluoromethyl)phenyl]pyrrolidin-1-yl}pyrazin-2-yl)amino]-1,3-thiazole-5-carbonitrile] | 12 | > 1000 | 4.5
6 | CCOC(=O)c1cnc(Nc2cncc(N3CCCC3c3ccc(C)cc3)n2)s1 (stereo not drawn) [Example 51, Ethyl 2-({6-[2-(4-methylphenyl)pyrrolidin-1-yl]pyrazin-2-yl}amino)-1,3-thiazole-5-carboxylate] | 88 | 930 | 160
7 | Cc1ccc([C@@H]2CCCN2c2cncc(Nc3ncc(C#N)s3)n2)cc1 [Example 1, 2-({6-[(2S)-2-(4-Methylphenyl)pyrrolidin-1-yl]pyrazin-2-yl}amino)-1,3-thiazole-5-carbonitrile hydrochloride] | 1.6 | 76 | 2.2
8 | Cc1ccc(C2CCCN2c2nc(Nc3ncc(C#N)s3)c(C)nc2C)cc1 (stereo not drawn) [Example 43, 2-({3,5-Dimethyl-6-[2-(4-methylphenyl)pyrrolidin-1-yl]pyrazin-2-yl}amino)-1,3-thiazole-5-carbonitrile] | 4.2 | > 1000 | 2.1
9 | COCCNC(=O)c1nc(N2CCC[C@H]2c2ccc(C)cc2)nc(Nc2ncc(C#N)s2)c1OC [Example 64, 6-[(5-Cyano-1,3-thiazol-2-yl)amino]-5-methoxy-N-(2-methoxyethyl)-2-[(2S)-2-(4-methylphenyl)pyrrolidin-1-yl]pyrimidine-4-carboxamide] | 2.6 | > 1000 | 1.5
10 | N#Cc1cnc(Nc2nc(N3CCCC3c3ccc(F)cc3)cnc2-c2cnco2)s1 (stereo not drawn) [Example 21, 2-({6-[2-(4-Fluorophenyl)pyrrolidin-1-yl]-3-(1,3-oxazol-5-yl)pyrazin-2-yl}amino)-1,3-thiazole-5-carbonitrile] | 13 | > 1000 | 
11 | COc1cc(C)ccc1C1CCCN1c1ncc(OC)c(Nc2ncc(C#N)s2)n1 (stereo not drawn) [Example 14, 2-({5-Methoxy-2-[2-(2-methoxy-4-methylphenyl)pyrrolidin-1-yl]pyrimidin-4-yl}amino)-1,3-thiazole-5-carbonitrile] | 2.5 | 350 | 
12 | Cc1ccc(C2CCCN2c2nc(C)c(C)c(Nc3ncc(C#N)s3)n2)cc1 (stereo not drawn) [Example 52, 2-({5,6-Dimethyl-2-[2-(4-methylphenyl)pyrrolidin-1-yl]pyrimidin-4-yl}amino)-1,3-thiazole-5-carbonitrile] | 1.8 | 170 | 
13 | Cc1ccc(C2CCCN2c2ncc(C)c(Nc3ncc(C#N)s3)n2)cc1 (stereo not drawn) [Example 2, 2-({5-Methyl-2-[2-(4-methylphenyl)pyrrolidin-1-yl]pyrimidin-4-yl}amino)-1,3-thiazole-5-carbonitrile] | 3.2 | 270 | 
14 | Cc1ccc(C2CCCN2c2nc3c(c(Nc4ncc(C#N)s4)n2)CN(S(C)(=O)=O)CC3)cc1 (stereo not drawn) [Example 72, 2-({2-[2-(4-Methylphenyl)pyrrolidin-1-yl]-6-(methylsulfonyl)-5,6,7,8-tetrahydropyrido[4,3-d]pyrimidin-4-yl}amino)-1,3-thiazole-5-carbonitrile] | 97 | > 1000 | 
15 | Cc1ccc([C@@H]2CCCN2c2cnc(C)c(Nc3ncc(C#N)s3)n2)cc1 [Example 20, 2-({3-Methyl-6-[(2S)-2-(4-methylphenyl)pyrrolidin-1-yl]pyrazin-2-yl}amino)-1,3-thiazole-5-carbonitrile hydrochloride] | 1.1 | 250 | 
16 | Cc1ncc(N2CCCC2c2ccc(Cl)cc2)nc1Nc1ncc(C#N)s1 (stereo not drawn) [Example 42, 2-({6-[2-(4-Chlorophenyl)pyrrolidin-1-yl]-3-methylpyrazin-2-yl}amino)-1,3-thiazole-5-carbonitrile] | 1.6 | 100 | 
17 | N#Cc1cnc(Nc2nc(N3CCCC3c3ccc(F)cc3)cnc2-c2ccoc2)s1 (stereo not drawn) [Example 25, 2-({6-[2-(4-Fluorophenyl)pyrrolidin-1-yl]-3-(furan-3-yl)pyrazin-2-yl}amino)-1,3-thiazole-5-carbonitrile] | 26 | > 1000 | 
18 | N#Cc1cnc(Nc2nc(N3CCCC3c3ccc(F)cc3)cnc2-c2cncnc2)s1 (stereo not drawn) [Example 22, 2-({6-[2-(4-Fluorophenyl)pyrrolidin-1-yl]-3-(pyrimidin-5-yl)pyrazin-2-yl}amino)-1,3-thiazole-5-carbonitrile] | 47 | > 1000 | 
19 | COc1c(Nc2ncc(C#N)s2)nc(N2CCCC2c2ccc(C)cc2)nc1-c1cncnc1 (stereo not drawn) [Example 3, 2-({5-Methoxy-2-[2-(4-methylphenyl)pyrrolidin-1-yl]-4,5′-bipyrimidin-6-yl}amino)-1,3-thiazole-5-carbonitrile] | 8.6 | > 1000 | 
20 | COc1cc(C)ccc1C1CCCN1c1cncc(Nc2ncc(C#N)s2)n1 (stereo not drawn) [Example 30, 2-({6-[2-(2-Methoxy-4-methylphenyl)pyrrolidin-1-yl]pyrazin-2-yl}amino)-1,3-thiazole-5-carbonitrile] | 0.5 | 69 | 
21 | Cc1ccc([C@@H]2CCCN2c2cc(C(N)=O)c(C3CC3)c(Nc3ncc(C#N)s3)n2)cc1 [Example 66, 2-[(5-Cyano-1,3-thiazol-2-yl)amino]-3-cyclopropyl-6-[(2S)-2-(4-methylphenyl)pyrrolidin-1-yl]pyridine-4-carboxamide] | 0.84 | 910 | 

Reference: US9580413B2, “Substituted pyrrolidines as ROS tyrosine kinase inhibitors” (NIPPON SHINYAKU CO., LTD., priority 2012, dated 2017)
